What was measured:
[1] = tested on: P. falciparum metabolites; experiment: LC-MS metabolomic profiling (lipids and polar metabolites); format: cell-based, Plasmodium falciparum; conditions: treated parasites, second IEC (72 hours after treatment)
[2] = target: hPXR (human pregnane X receptor) (Homo sapiens, UniProt O75469); experiment: Enhanced Cross Screen Panel (eXP): hPXR; format: in vitro ADME
[3] = tested on: P. falciparum 3D7 parasites; experiment: Isopentenyl pyrophosphate (IPP) rescue assay; format: cell-based, Plasmodium falciparum; conditions: drug at IC80 for one IEC before IPP (200 μM)
Text: Fig. 2. […] Nuclei are stained with 4’,6-diamidino-2-phenylindole (DAPI; blue). […] (B) Dose-dependent interactions between MED6-189 (blue) and various antimalarials with known mechanisms of action (red). […] The regression line represents a nonlinear regression (variable slope with four parameters), with significant differences considered if P < 0.05. […] Isobologram curves are expected to be parallel to the diagonal for additive drug pairs, concave for synergistic drug pairs, and convex for antagonistic drug pairs. […] The analysis was performed using a two-way ANOVA, n = 3, with P < 0.05 significance.
IPP is a product of the MEP/DOXP pathway, and its supplementation reduces susceptibility to MEP inhibitors. […] Parasites were drugged at 80% inhibitory concentrations (IC80) for one IEC before IPP (200 μM) supplementation.

HepG2 = experiment: Human cell line activity, HepG2; format: cell-based; conditions: HepG2, read-out: IC50 (µM) HepG2
[4] = tested on: synchronized P. falciparum 3D7 parasites; experiment: Parasitemia and asexual stage phenotype analyses; format: cell-based, Plasmodium falciparum; conditions: IC80, synchronized 3D7, second IEC
Protocol: Fig. 1. […] (B) SYBR Green–based dose response assays were conducted on early-ring stage parasites (6 hours after invasion). […] 3D7 WT (blue), NF54 (green), drug-resistant strains Dd2 (red), HB3 (black), W2 (gray), and D10-ACP-GFP (purple) lines (Sigmoidal, 4PL, X is concentration, n ≥ 3, nonlinear regression, CI: 95%). (C) Schematic diagram of the development of P. falciparum after two consecutive erythrocytic cycles. The time points at which MED6-189 was introduced are depicted in green. HPS, hours post synchronization. […] The images depict various developmental stages of the parasite’s intraerythrocytic life cycle. Bordered images represent time points when drug was first introduced (n = 3 biological replicates, P < 0.05). […]
Data analysis The percentage of parasitized erythrocytes was determined by enumerating the number of Hoechst positive events out of the total erythrocytes after excluding non-single cells by forward and side scatter. The percent survival was calculated by averaging the parasitemia in the triplicates for each condition and then dividing by the parasitemia observed in the wells that did not receive drug treatment. The IC50 was then calculated using GraphPad Prism 9 (GraphPad […]
hrs. […] Parasitemia and proportion of the different asexual blood stages were determined by counting Giemsa-stained blood smears by light microscopy at every 12-hour time point. […]

Chain of hPXR (human pregnane X receptor) (O75469 whole entry): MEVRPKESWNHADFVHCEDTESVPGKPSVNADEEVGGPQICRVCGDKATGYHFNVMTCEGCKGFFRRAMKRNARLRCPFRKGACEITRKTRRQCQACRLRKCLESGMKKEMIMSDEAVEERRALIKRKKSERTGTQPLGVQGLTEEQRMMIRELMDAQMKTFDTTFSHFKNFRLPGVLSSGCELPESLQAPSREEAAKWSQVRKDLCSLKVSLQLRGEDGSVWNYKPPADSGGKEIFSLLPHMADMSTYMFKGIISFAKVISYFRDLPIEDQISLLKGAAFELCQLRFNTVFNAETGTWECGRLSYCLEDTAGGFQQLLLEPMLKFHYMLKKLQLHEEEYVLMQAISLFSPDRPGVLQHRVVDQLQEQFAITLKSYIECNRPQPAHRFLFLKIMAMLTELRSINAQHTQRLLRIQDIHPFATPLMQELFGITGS

Compound: [C-]#[N+][C@]1(C)CC[C@H]2[C@@H]([C@@H](C(C)C)CC[C@]2(C)[N+]#[C-])[C@H]1O [MED6-189]
- increase in lysophosphatidylcholine (LPC) steady-state levels [1]: ~3.5 fold
- IC50 [2]: 7.4 µM
- rescue of parasites by IPP supplementation [3]: can only be rescued by IPP for one additional cycle
- IC50 (HepG2): 34 µM
- effect on asexual intraerythrocytic development [4]: unable to fully undergo schizogony or reinvasion

Reference: PMC11793105, “A kalihinol analog disrupts apicoplast function and vesicular trafficking in P. falciparum malaria” (Science (New York, N.Y.), 2024)
